Experimental data reported in PubChem BioAssay (NCI).
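96-well plates; 48 h exposure; 5 concentrations. Endpoints by linear interpolation between flanking doses. Not reached: highest tested concentration assigned. TGI denotes the concentration required for complete inhibition of growth.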

tested on: KM12 colon; assay: growth of human tumour cells (NCI), 48 h

Compound | TGI
COC(=O)Nc1nc2ccc(S(=O)(=O)NC(CC(C)C)C(=O)OC)cc2[nH]1 (configuration not stated) | 12.6 µM
OC(CCN1CCCCC1)(c1ccccc1)c1ccccc1 | > 100 µM
CC(C)(C)[Si](C)(C)O[C@@H](C(=O)OC1C=CCCC1)[C@@H](NC(=O)c1ccccc1)c1ccccc1 (some centres not stated) | > 100 µM
O=C(Nc1cccc2ccccc12)Nn1cnnc1 | > 100 µM
Cc1oc2c(c1C)S(=O)(=O)C(C#N)=C(c1ccccc1)N2 | > 100 µM
Cc1ccc2c(c1)C(=O)/C(=N/Nc1ccc(Cl)cc1)CCO2 | > 100 µM
CN(C)c1ccc(/C=N\NC(=O)c2ccccc2Nc2ccccc2C(=O)N/N=C/c2ccc(N(C)C)cc2)cc1 | > 100 µM
CC(=O)O[C@@H]1CC[C@@]2(C)C(CC[C@H]3[C@@H]4CC[C@H]([C@H](C)CCc5nc6ccc(C)cc6[nH]5)[C@@]4(C)CC[C@@H]32)C1 (some centres not stated) | 31.7 µM
C=C1C(=O)OC2/C=C(\CO)C3OC3C3OC3(C)CC(OC(=O)/C(=C/C)CO)C12 (configuration not stated) | > 100 µM
Cc1csc2nc3c(cnn3C)c(=S)n12 | > 100 µM
C/C1=C/C(C)CC(C)OC(=O)C(C)NC(=O)C(Cc2ccc(O)c(I)c2)N(C)C(=O)CNC(=O)C(C)C1 (configuration not stated) | > 100 µM
Cc1ccc(-n2cnc3c(N)nc(N)nc32)cc1 | > 100 µM
CNc1c2cccc(C)c2nc2c(C(=O)NCCN(C)C)cccc12 | 1.67 µM
CCC(Sc1cc(Cl)c(C)cc1S(=O)(=O)Nc1nc(N)nc(N(C)C)n1)C(=O)O (configuration not stated) | > 10 µM
O=c1c(C=Nc2ccccc2Cl)c(O)n(-c2ccccc2)c(=O)n1-c1ccccc1 | > 100 µM
CCOC(=O)NNC(=O)C1CSC(c2ccccc2)N1C(C)=O (configuration not stated) | > 100 µM
CC(C)(C)O/C=C1/C(=O)OC2C[C@@H](O[Si](C)(C)C(C)(C)C)CC12 (some centres not stated) | > 100 µM
COc1ccc2nc3c([N+](=O)[O-])ccc4c3c(c2c1)N=CN4CCCN(C)C | 13 µM
O=C1CC(=O)NC(=NN2C(=O)/C(=C/C(=O)c3ccco3)N=C2c2ccccc2)N1 | > 100 µM

tested on: MALME-3M melanoma; assay: growth of human tumour cells (NCI), 48 h

Compound | TGI
Cc1oc2c(c1C)S(=O)(=O)C(C#N)C(c1ccccc1)N2 (configuration not stated) | > 100 µM
CC(=O)Oc1cc2c(n(C)c1=O)-c1ccccc1C2 | > 100 µM
COc1ccc2cc(Oc3ccc(Cl)cc3)c(=O)oc2c1 | > 100 µM
CN(C)C=C1C(=O)c2c(Br)sc(Br)c2C1=O | 29.3 µM
CCN(CC)C(=C(C(Cl)=C(Cl)Cl)[N+](=O)[O-])N(CC)CC | 91.6 µM
CCOC(=O)C(C(=O)OCC)=C1NC2(c3ccccc3Nc3ccc(C)cc32)C(C#N)S1 (configuration not stated) | 30.7 µM
COC(=O)Nc1nc2ccc(S(=O)(=O)NC(CC(C)C)C(=O)OC)cc2[nH]1 (configuration not stated) | 41.2 µM
OC(CCN1CCCCC1)(c1ccccc1)c1ccccc1 | > 100 µM
CC(C)(C)[Si](C)(C)O[C@@H](C(=O)OC1C=CCCC1)[C@@H](NC(=O)c1ccccc1)c1ccccc1 (some centres not stated) | > 100 µM
O=C(Nc1cccc2ccccc12)Nn1cnnc1 | > 100 µM
Cc1oc2c(c1C)S(=O)(=O)C(C#N)=C(c1ccccc1)N2 | > 100 µM
Cc1ccc2c(c1)C(=O)/C(=N/Nc1ccc(Cl)cc1)CCO2 | > 100 µM
CN(C)c1ccc(/C=N\NC(=O)c2ccccc2Nc2ccccc2C(=O)N/N=C/c2ccc(N(C)C)cc2)cc1 | 98 µM
C=C1C(=O)OC2/C=C(\CO)C3OC3C3OC3(C)CC(OC(=O)/C(=C/C)CO)C12 (configuration not stated) | 68.6 µM
Cc1csc2nc3c(cnn3C)c(=S)n12 | > 100 µM
C/C1=C/C(C)CC(C)OC(=O)C(C)NC(=O)C(Cc2ccc(O)c(I)c2)N(C)C(=O)CNC(=O)C(C)C1 (configuration not stated) | 6.22 µM
Cc1ccc(-n2cnc3c(N)nc(N)nc32)cc1 | > 100 µM
CNc1c2cccc(C)c2nc2c(C(=O)NCCN(C)C)cccc12 | 0.692 µM
CCC(Sc1cc(Cl)c(C)cc1S(=O)(=O)Nc1nc(N)nc(N(C)C)n1)C(=O)O (configuration not stated) | > 10 µM
O=c1c(C=Nc2ccccc2Cl)c(O)n(-c2ccccc2)c(=O)n1-c1ccccc1 | > 100 µM
CCOC(=O)NNC(=O)C1CSC(c2ccccc2)N1C(C)=O (configuration not stated) | > 100 µM
CC(C)(C)O/C=C1/C(=O)OC2C[C@@H](O[Si](C)(C)C(C)(C)C)CC12 (some centres not stated) | > 100 µM
COc1ccc2nc3c([N+](=O)[O-])ccc4c3c(c2c1)N=CN4CCCN(C)C | 28.2 µM
O=C1CC(=O)NC(=NN2C(=O)/C(=C/C(=O)c3ccco3)N=C2c2ccccc2)N1 | > 100 µM

tested on: MDA-MB-231 breast; assay: growth of human tumour cells (NCI), 48 h

Compound | TGI
Cc1oc2c(c1C)S(=O)(=O)C(C#N)C(c1ccccc1)N2 (configuration not stated) | > 100 µM
CC(=O)Oc1cc2c(n(C)c1=O)-c1ccccc1C2 | > 100 µM
COc1ccc2cc(Oc3ccc(Cl)cc3)c(=O)oc2c1 | > 100 µM
CCN(CC)C(=C(C(Cl)=C(Cl)Cl)[N+](=O)[O-])N(CC)CC | > 100 µM
COC(=O)Nc1nc2ccc(S(=O)(=O)NC(CC(C)C)C(=O)OC)cc2[nH]1 (configuration not stated) | > 100 µM
OC(CCN1CCCCC1)(c1ccccc1)c1ccccc1 | > 100 µM
CC(C)(C)[Si](C)(C)O[C@@H](C(=O)OC1C=CCCC1)[C@@H](NC(=O)c1ccccc1)c1ccccc1 (some centres not stated) | > 100 µM
Cc1oc2c(c1C)S(=O)(=O)C(C#N)=C(c1ccccc1)N2 | > 100 µM
Cc1ccc2c(c1)C(=O)/C(=N/Nc1ccc(Cl)cc1)CCO2 | > 100 µM
CN(C)c1ccc(/C=N\NC(=O)c2ccccc2Nc2ccccc2C(=O)N/N=C/c2ccc(N(C)C)cc2)cc1 | 67.8 µM
CC(=O)O[C@@H]1CC[C@@]2(C)C(CC[C@H]3[C@@H]4CC[C@H]([C@H](C)CCc5nc6ccc(C)cc6[nH]5)[C@@]4(C)CC[C@@H]32)C1 (some centres not stated) | 55.3 µM
C=C1C(=O)OC2/C=C(\CO)C3OC3C3OC3(C)CC(OC(=O)/C(=C/C)CO)C12 (configuration not stated) | > 100 µM
Cc1csc2nc3c(cnn3C)c(=S)n12 | > 10 µM
C/C1=C/C(C)CC(C)OC(=O)C(C)NC(=O)C(Cc2ccc(O)c(I)c2)N(C)C(=O)CNC(=O)C(C)C1 (configuration not stated) | 1.99 µM
